ChEMBL document CHEMBL3044607, “Quantitative structureactivity relationships of imidacloprid and its analogs with substituents at the C5 position on the pyridine ring in the neuroblocking activity” (J Pestic Sci, 2006)

system: Periplaneta americana; assay: Insecticidal activity against Periplaneta americana (American cockroach) assessed as neuroblocking concentration; format: functional

| SMILES | log(1/BC) |
| --- | --- |
| O=[N+]([O-])/N=C1\NCCN1Cc1cnc(Cl)c(Br)c1 | 5.51 |
| O=[N+]([O-])/N=C1\NCCN1Cc1cnc(Cl)c(I)c1 | 5.3 |
| COc1cc(CN2CCN/C2=N\[N+](=O)[O-])cnc1Cl | 4.98 |
| CCOc1cc(CN2CCN/C2=N\[N+](=O)[O-])cnc1Cl | 4.66 |
| CCCOc1cc(CN2CCN/C2=N\[N+](=O)[O-])cnc1Cl | 4.56 |
| CC(C)Oc1cc(CN2CCN/C2=N\[N+](=O)[O-])cnc1Cl | 4.46 |
| CCCCOc1cc(CN2CCN/C2=N\[N+](=O)[O-])cnc1Cl | 4.58 |
| CCCCCOc1cc(CN2CCN/C2=N\[N+](=O)[O-])cnc1Cl | 3.59 |
| Cc1cc(CN2CCN/C2=N\[N+](=O)[O-])cnc1Cl | 5.25 |
| CCc1cc(CN2CCN/C2=N\[N+](=O)[O-])cnc1Cl | 4.66 |
| CCCc1cc(CN2CCN/C2=N\[N+](=O)[O-])cnc1Cl | 4.51 |
| CCCCc1cc(CN2CCN/C2=N\[N+](=O)[O-])cnc1Cl | 3.79 |
| O=[N+]([O-])/N=C1\NCCN1Cc1cnc(Cl)c(-c2ccccc2)c1 | 4.46 |
| O=[N+]([O-])/N=C1\NCCN1Cc1cnc(Cl)c(C(F)(F)F)c1 | 4.43 |
| COC(=O)c1cc(CN2CCN/C2=N\[N+](=O)[O-])cnc1Cl | 3.92 |
| N#Cc1cc(CN2CCN/C2=N\[N+](=O)[O-])cnc1Cl | 4.59 |
| O=[N+]([O-])/N=C1\NCCN1Cc1cnc(Cl)c([N+](=O)[O-])c1 | 3.6 |
| [N-]=[N+]=Nc1cc(CN2CCN/C2=N\[N+](=O)[O-])cnc1Cl [5-AZIDOIMIDACLOPRID] | 4.98 |
| O=[N+]([O-])/N=C1\NCCN1Cc1cnc(Cl)c(Cl)c1 [5-CHLOROIMIDACLOPRID] | 5.61 |
| O=[N+]([O-])/N=C1/NCCN1Cc1cnc(Cl)c(F)c1 [5-FLUOROIMIDACLOPRID] | 5.99 |
| O=[N+]([O-])/N=C1\NCCN1Cc1ccc(Cl)nc1 [IMIDACLOPRID] | 5.7 |
